# Active and inactive are the calls of the source. The calls are words filed in the database; no cut-off is given here.
# Key:
# [1] = system: Staphylococcus aureus; assay: Antibacterial activity against methicillin-resistant Staphylococcus aureus infected in BALB/c mouse wound model assessed as reversal of inflammation-induced IL-6 level in wound at 20 to 80 mg/kg administered topically on days 0, 3 and 6 measured after 12 days by ELISA; assay type: functional, organism-based; details: dose 20-80 mg/kg, route top, time 12.0 day
# [2] = system: Klebsiella pneumoniae; assay: Bactericidal activity against Klebsiella pneumoniae 13b5; assay type: functional
# [3] = system: Listeria monocytogenes; assay: Inhibition of biofilm formation in Listeria monocytogenes EGD incubated for 24 hrs by crystal violet staining based analysis; assay type: functional, organism-based; details: dose <= 0.13 µg/ml
# [4] = system: Staphylococcus aureus; assay: Effect on lysine degradation in Staphylococcus aureus USA300 at 4 times MIC by KEGG analysis; assay type: functional, organism-based
# [5] = system: Staphylococcus aureus; assay: Induction of cell permeability in Staphylococcus aureus USA300 upto 0.13 uM by PI dye based analysis; assay type: functional, organism-based
# [6] = system: Staphylococcus aureus; assay: Effect on purine metabolism in Staphylococcus aureus USA300 at 4 times MIC by KEGG analysis; assay type: functional, organism-based
# [7] = system: Staphylococcus aureus; assay: Antibacterial activity against Staphylococcus aureus ATCC 25923 incubated for 16 to 24 hrs by broth microdilution method; assay type: functional; details: time 16-24 hrs
# [8] = target: DNA gyrase (Staphylococcus aureus, UniProt P0A0K8+P20831); assay: Inhibition of Staphylococcus aureus gyrase; assay type: protein-complex assay
# [9] = system: Acinetobacter baumannii; assay: Bactericidal activity against Acinetobacter baumannii ATCC 17978; assay type: functional
# [10] = system: Listeria monocytogenes; assay: Bactericidal activity against Listeria monocytogenes EGD; assay type: functional
# [11] = system: Klebsiella pneumoniae; assay: Bactericidal activity against Klebsiella pneumoniae E8.31; assay type: functional
# [12] = system: Staphylococcus aureus; assay: Effect on pyrimidine metabolism in Staphylococcus aureus USA300 at 4 times MIC by KEGG analysis; assay type: functional, organism-based
# [13] = system: Listeria monocytogenes; assay: Antibacterial activity against Listeria monocytogenes ATCC 19115 incubated for 16 to 24 hrs by broth microdilution method; assay type: functional; details: time 16-24 hrs
# [14] = system: Staphylococcus aureus; assay: Disruption of cell membrane integrity in Staphylococcus aureus USA300 assessed as visible cavity formation on surface at 4 to 8 times MIC by TEM/SEM analysis; assay type: functional, organism-based
# [15] = system: Staphylococcus aureus; assay: Bactericidal activity against Staphylococcus aureus ATCC 25923; assay type: functional
# [16] = system: Listeria monocytogenes; assay: Bactericidal activity against Listeria monocytogenes EGD measured upto 24 hrs by time-kill assay; assay type: functional, organism-based
# [17] = system: Staphylococcus aureus; assay: Bactericidal activity against methicillin-resistant Staphylococcus aureus USA300 at 4 times MIC measured for 12 to 24 hrs by time-kill assay; assay type: functional, organism-based; details: time 12-24 hrs
# [18] = system: Staphylococcus aureus; assay: Antibacterial activity against methicillin-resistant Staphylococcus aureus infected in BALB/c mouse wound model assessed as increase in thickness of granulation tissue at 20 to 80 mg/kg administered topically on days 0, 3 and 6 measured for 6 to 12 days by H and E staining based analysis; assay type: functional, organism-based; details: dose 20-80 mg/kg, route top, time 6-12 day
# [19] = Hemolytic activity in rabbit RBCs upto 8 ug/ml incubated for 1 hr; assay type: toxicity, cell-based, Oryctolagus cuniculus; details: erythrocyte, dose < 8 µg/ml
# [20] = system: Staphylococcus aureus; assay: Antibacterial activity against Staphylococcus aureus USA300 assessed as acceleration of TCA cycle measured by increase in icd mRNA level upto 0.25 ug/ml incubated for 6 hrs by RT-PCR analysis; assay type: functional, organism-based; details: dose <= 0.25 µg/ml
# [21] = system: A549; assay: Reversal of Staphylococcus aureus USA300-induced cytotoxicity in human A549 cells infected with bacteria assessed as cell viability upto 8 ug/ml preincubated with compound followed by […] infection for 5 hrs by LDH assay; assay type: functional, cell-based; details: dose <= 8.0 µg/ml
# [22] = system: Streptococcus suis; assay: Bactericidal activity against Streptococcus suis ZY05719 measured upto 24 hrs by time-kill assay; assay type: functional, organism-based
# [23] = system: Staphylococcus aureus; assay: Bacteriostatic activity against methicillin-resistant Staphylococcus aureus USA300 at 1 to 2 times MIC measured upto 24 hrs by time-kill assay; assay type: functional, organism-based
# [24] = system: Staphylococcus aureus; assay: Bactericidal activity against Staphylococcus aureus USA300; assay type: functional
# [25] = system: Staphylococcus aureus; assay: Antibacterial activity against methicillin-resistant Staphylococcus aureus MRSA 2 incubated for 16 to 24 hrs by broth microdilution method; assay type: functional; details: time 16-24 hrs
# [26] = system: Staphylococcus aureus; assay: Antibacterial activity against methicillin-resistant Staphylococcus aureus infected in BALB/c mouse wound model assessed as reduction in bacterial load at 20 to 80 mg/kg administered topically on days 0, 3 and 6 measured after 12 days; assay type: functional, organism-based; details: dose 20-80 mg/kg, route top, time 12.0 day
# [27] = system: Staphylococcus aureus; assay: Inhibition of resistance development in Staphylococcus aureus USA300 incubated for 24 hrs measured after 14 passages by broth microdilution method; assay type: functional, organism-based
# [28] = system: Klebsiella pneumoniae; assay: Antibacterial activity against Klebsiella pneumoniae E8.31 incubated for 16 to 24 hrs by broth microdilution method; assay type: functional; details: time 16-24 hrs
# [29] = system: Staphylococcus aureus; assay: Bactericidal activity against methicillin-resistant Staphylococcus aureus MRSA 1; assay type: functional
# [30] = system: Staphylococcus aureus; assay: Antibacterial activity against Staphylococcus aureus USA300 at 2 times MIC measured upto 24 hrs in presence of alpha-tocopherol; assay type: functional, organism-based
# [31] = system: Staphylococcus aureus; assay: Effect on biosynthesis of co-factors in Staphylococcus aureus USA300 at 4 times MIC by KEGG analysis; assay type: functional, organism-based
# [32] = system: Streptococcus suis; assay: Antibacterial activity against Streptococcus suis ZY05719 incubated for 16 to 24 hrs by broth microdilution method; assay type: functional; details: time 16-24 hrs
# [33] = system: Staphylococcus aureus; assay: Antibacterial activity against Staphylococcus aureus USA300 assessed as acceleration of TCA cycle measured by increase in mqo mRNA level upto 0.25 ug/ml incubated for 6 hrs by RT-PCR analysis; assay type: functional, organism-based; details: dose <= 0.25 µg/ml
# [34] = system: Staphylococcus aureus; assay: Inhibition of biofilm formation in Staphylococcus aureus USA300 upto 0.13 ug/ml incubated for 24 hrs by crystal violet staining based analysis; assay type: functional, organism-based; details: dose <= 0.13 µg/ml
# [35] = system: Staphylococcus aureus; assay: Upregulation of ATP level in Staphylococcus aureus USA300 upto 0.25 ug/ml incubated for 5 hrs; assay type: functional, organism-based; details: dose <= 0.25 µg/ml
# [36] = system: Staphylococcus aureus; assay: Antibacterial activity against methicillin-resistant Staphylococcus aureus infected in BALB/c mouse wound model assessed as decrease in wound diameter at 20 to 80 mg/kg administered topically on days 0, 3 and 6 measured after 12 days; assay type: functional, organism-based; details: dose 20-80 mg/kg, route top, time 12.0 day
# [37] = system: Staphylococcus aureus; assay: Effect on TCA cycle in Staphylococcus aureus USA300 at 4 times MIC by KEGG analysis; assay type: functional, organism-based
# [38] = system: Staphylococcus aureus; assay: Antibacterial activity against methicillin-resistant Staphylococcus aureus infected in BALB/c mouse wound model assessed as angiogenesis in skin tissue by measuring increase in CD31 expression at 20 to 80 mg/kg administered topically on days 0, 3 and 6 measured after 12 days by IHC analysis; assay type: functional, organism-based; details: dose 20-80 mg/kg, route top, time 12.0 day
# [39] = system: Staphylococcus aureus; assay: Antibacterial activity against methicillin-resistant Staphylococcus aureus infected in BALB/c mouse wound model assessed as organised collagen fibers in skin tissue at 20 to 80 mg/kg administered topically on days 0, 3 and 6 measured for 6 to 12 days by Masson's trichome staining based analysis; assay type: functional, organism-based; details: dose 20-80 mg/kg, route top, time 6-12 day
# [40] = system: Staphylococcus aureus; assay: Antibacterial activity against Staphylococcus aureus DU1090 incubated for 16 to 24 hrs by broth microdilution method; assay type: functional; details: time 16-24 hrs
# [41] = system: Staphylococcus aureus; assay: Antibacterial activity against methicillin-resistant Staphylococcus aureus infected in BALB/c mouse wound model assessed as decrease in CD68 expression in skin tissue at 20 to 80 mg/kg administered topically on days 0, 3 and 6 measured after 12 days by IHC analysis; assay type: functional, organism-based; details: dose 20-80 mg/kg, route top, time 12.0 day
# [42] = system: Escherichia coli; assay: Antibacterial activity against Escherichia coli ATCC 25922 incubated for 16 to 24 hrs by broth microdilution method; assay type: functional; details: time 16-24 hrs
# [43] = system: Staphylococcus aureus; assay: Induction of ROS accumulation in Staphylococcus aureus USA300 upto 0.25 ug/ml incubated for 1 hr by DCFH-DA dye based analysis; assay type: functional, organism-based; details: dose <= 0.25 µg/ml
# Chain of DNA gyrase (P0A0K8 whole entry): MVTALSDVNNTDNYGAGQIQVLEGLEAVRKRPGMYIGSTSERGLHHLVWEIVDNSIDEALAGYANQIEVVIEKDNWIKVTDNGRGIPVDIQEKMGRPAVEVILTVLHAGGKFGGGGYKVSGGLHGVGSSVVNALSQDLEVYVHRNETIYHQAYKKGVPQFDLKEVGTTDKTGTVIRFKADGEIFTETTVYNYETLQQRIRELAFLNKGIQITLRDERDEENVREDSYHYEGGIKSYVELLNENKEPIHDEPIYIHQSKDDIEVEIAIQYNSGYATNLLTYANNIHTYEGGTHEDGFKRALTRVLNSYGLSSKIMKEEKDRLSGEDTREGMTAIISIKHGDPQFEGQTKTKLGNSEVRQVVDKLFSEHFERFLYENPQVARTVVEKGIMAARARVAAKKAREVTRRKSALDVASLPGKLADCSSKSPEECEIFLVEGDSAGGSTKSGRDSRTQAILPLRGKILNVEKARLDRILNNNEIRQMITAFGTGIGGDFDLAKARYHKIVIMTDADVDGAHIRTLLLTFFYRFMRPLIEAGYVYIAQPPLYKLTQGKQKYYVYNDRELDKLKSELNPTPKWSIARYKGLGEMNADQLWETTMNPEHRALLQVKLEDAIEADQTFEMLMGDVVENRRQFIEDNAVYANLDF
# Chain of DNA gyrase (P20831 whole entry): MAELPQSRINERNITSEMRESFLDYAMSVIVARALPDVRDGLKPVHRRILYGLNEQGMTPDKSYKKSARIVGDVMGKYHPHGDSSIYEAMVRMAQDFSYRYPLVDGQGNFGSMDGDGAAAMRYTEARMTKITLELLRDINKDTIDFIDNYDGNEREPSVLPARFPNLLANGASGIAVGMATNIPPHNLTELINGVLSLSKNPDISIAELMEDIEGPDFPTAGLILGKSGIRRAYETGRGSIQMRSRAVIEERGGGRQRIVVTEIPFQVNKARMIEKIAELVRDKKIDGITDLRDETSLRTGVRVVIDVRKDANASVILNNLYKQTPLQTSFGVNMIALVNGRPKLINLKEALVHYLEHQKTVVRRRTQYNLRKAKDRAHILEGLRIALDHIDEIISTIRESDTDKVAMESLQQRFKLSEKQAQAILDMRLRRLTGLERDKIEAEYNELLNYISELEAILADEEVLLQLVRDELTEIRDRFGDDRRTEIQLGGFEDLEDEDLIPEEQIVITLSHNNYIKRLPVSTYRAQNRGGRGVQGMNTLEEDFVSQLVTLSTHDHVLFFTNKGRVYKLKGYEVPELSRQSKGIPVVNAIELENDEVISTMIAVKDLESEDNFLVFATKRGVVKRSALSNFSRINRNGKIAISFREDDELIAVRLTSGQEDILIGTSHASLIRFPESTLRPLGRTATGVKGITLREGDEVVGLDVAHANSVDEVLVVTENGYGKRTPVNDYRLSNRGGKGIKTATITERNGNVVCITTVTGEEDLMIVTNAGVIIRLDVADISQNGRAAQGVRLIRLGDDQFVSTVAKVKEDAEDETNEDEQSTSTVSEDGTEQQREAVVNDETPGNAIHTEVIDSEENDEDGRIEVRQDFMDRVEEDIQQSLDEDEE
smiles,measurement,setting,value
CCn1c(=O)c(C(=O)Nc2nnc(-c3ccc(C)cn3)s2)c(O)c2ccccc21,Activity,[1],Active
same,MBC,[2],> 512 µg/mL
same,inhibition,[3],Dose-dependent-effect
same,Activity,[4],Active
same,Activity,[5],Active
same,Activity,[6],Active
same,MIC,[7],0.03 µg/mL
same,IC50,[8],1190 nM
same,MBC,[9],> 512 µg/mL
same,MBC,[10],> 0.25 µg/mL
same,MBC,[11],> 512 µg/mL
same,Activity,[12],Active
same,MIC,[13],0.02 µg/mL
same,Activity,[14],Active
same,MBC,[15],0.1 µg/mL
same,Activity,[16],Active; Bacteria Were Suppressed Or Completely Eliminated
same,Activity,[17],Active
same,Activity,[18],Active
same,Activity,[19],Non-toxic
same,Activity,[20],Active
same,Activity,[21],Active
same,Activity,[22],Active; Bacteria Were Suppressed Or Completely Eliminated
same,Activity,[23],Active
same,MBC,[24],0.16 µg/mL
same,MIC,[25],0.02 µg/mL
same,Activity,[26],Active
same,inhibition,[27],Active
same,MIC,[28],> 512 µg/mL
same,MBC,[29],0.05 µg/mL
same,Activity,[30],inactive
same,Activity,[31],Active
same,MIC,[32],0.04 µg/mL
same,Activity,[33],Active
same,inhibition,[34],Active
same,Activity,[35],Active
same,Activity,[36],Active
same,Activity,[37],Active
same,Activity,[38],Active
same,Activity,[39],Active
same,MIC,[40],0.02 µg/mL
same,Activity,[41],Active
same,MIC,[42],> 512 µg/mL
same,Activity,[43],Active
